ChEMBL document CHEMBL1122727, “Adrenoceptor and tetrabenazine antagonism activities of some pyridinyltetrahydropyridines” (J Med Chem, 1984)

Tests used:
[1] = molecular target: T1, Adrenergic receptor alpha-2 (Rattus norvegicus, UniProt P22086+P19328+P22909); assay: Antagonistic activity against clonidine-stimulated rat vas deferens presynaptic alpha-2 adrenergic receptor; type: functional, tissue-based
T1 sequence (P22086 whole entry): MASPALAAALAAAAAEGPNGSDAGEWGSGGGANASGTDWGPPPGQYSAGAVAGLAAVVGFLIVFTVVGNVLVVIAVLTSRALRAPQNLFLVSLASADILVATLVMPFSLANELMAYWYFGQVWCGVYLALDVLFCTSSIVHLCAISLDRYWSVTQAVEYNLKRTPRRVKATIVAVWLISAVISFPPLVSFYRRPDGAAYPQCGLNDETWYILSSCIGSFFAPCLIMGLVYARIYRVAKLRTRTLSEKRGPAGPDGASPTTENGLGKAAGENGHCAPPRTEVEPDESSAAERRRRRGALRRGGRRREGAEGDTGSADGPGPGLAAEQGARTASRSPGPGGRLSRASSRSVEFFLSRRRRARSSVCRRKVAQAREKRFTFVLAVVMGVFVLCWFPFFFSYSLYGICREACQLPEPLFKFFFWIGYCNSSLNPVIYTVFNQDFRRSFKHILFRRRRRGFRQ
T1 sequence (P19328 whole entry): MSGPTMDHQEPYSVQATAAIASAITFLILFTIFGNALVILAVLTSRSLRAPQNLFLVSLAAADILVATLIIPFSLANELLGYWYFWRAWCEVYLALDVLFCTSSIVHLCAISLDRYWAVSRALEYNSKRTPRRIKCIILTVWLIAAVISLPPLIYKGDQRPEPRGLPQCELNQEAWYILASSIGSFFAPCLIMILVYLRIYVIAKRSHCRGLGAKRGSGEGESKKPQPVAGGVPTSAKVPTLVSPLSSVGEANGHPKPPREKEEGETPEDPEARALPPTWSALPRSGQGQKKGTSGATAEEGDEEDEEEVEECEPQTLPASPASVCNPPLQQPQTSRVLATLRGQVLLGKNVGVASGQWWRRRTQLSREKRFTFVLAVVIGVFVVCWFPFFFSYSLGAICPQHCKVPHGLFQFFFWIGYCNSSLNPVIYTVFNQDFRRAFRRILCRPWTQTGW
T1 sequence (P22909 whole entry): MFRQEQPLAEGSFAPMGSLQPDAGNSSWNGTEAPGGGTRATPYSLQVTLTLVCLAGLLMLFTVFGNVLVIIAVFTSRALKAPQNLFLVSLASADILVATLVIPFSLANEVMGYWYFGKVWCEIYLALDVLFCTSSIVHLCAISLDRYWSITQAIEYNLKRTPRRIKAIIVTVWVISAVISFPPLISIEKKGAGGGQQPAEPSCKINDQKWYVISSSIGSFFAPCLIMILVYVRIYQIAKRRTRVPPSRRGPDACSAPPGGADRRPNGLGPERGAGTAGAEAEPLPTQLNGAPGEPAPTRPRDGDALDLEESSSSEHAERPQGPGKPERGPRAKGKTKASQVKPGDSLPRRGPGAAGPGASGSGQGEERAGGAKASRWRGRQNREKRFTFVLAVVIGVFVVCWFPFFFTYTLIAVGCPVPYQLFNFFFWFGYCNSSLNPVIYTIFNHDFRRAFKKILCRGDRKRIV

[2] = Relative binding to alpha-1a and alpha-2 adrenergic receptors (ratio of Ki-prazosin and Ki-clonidine)
[3] = Displacement of [3H]clonidine from calf cerebral cortex alpha-2 adrenergic receptor; type: tissue-based, Bos taurus
[4] = molecular target: T2, Alpha-1A adrenergic receptor (Bos taurus, UniProt P18130); assay: Displacement of [3H]prazosin from calf cerebral cortex alpha-1 adrenergic receptor; type: tissue-based
T2 sequence (P18130 whole entry): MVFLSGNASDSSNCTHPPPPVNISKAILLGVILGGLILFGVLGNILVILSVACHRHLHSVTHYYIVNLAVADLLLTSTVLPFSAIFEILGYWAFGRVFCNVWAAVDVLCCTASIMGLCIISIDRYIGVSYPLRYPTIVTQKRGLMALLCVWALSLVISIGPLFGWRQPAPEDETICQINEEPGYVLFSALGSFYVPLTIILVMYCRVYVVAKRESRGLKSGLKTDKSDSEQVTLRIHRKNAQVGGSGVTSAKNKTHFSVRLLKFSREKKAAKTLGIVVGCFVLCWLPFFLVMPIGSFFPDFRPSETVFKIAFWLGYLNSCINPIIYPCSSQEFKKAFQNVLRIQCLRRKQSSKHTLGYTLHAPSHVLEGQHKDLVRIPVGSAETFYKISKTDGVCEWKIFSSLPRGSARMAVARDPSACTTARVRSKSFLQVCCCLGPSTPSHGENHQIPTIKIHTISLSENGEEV

[5] = molecular target: T3, Adrenergic receptor alpha-1 (Rattus norvegicus, UniProt P15823+P23944+P43140); assay: Antagonistic activity upon postsynaptic alpha-1 adrenergic receptor was determined in the rat isolated, field stimulated vas deferens using methoxamine; type: functional, tissue-based
T3 sequence (P15823 whole entry): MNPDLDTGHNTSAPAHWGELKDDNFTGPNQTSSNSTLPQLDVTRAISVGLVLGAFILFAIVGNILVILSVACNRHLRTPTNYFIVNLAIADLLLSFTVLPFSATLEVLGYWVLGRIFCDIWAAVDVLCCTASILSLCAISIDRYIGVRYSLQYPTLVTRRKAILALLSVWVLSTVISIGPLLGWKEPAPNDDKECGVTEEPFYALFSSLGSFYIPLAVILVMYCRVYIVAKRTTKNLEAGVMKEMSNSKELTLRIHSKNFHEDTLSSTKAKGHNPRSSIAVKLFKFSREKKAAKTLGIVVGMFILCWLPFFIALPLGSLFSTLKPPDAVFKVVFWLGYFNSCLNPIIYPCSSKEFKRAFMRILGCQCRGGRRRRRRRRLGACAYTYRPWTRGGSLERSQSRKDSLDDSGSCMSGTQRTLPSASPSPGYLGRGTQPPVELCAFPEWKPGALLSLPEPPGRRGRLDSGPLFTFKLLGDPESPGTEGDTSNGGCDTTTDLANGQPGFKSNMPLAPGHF
T3 sequence (P23944 whole entry): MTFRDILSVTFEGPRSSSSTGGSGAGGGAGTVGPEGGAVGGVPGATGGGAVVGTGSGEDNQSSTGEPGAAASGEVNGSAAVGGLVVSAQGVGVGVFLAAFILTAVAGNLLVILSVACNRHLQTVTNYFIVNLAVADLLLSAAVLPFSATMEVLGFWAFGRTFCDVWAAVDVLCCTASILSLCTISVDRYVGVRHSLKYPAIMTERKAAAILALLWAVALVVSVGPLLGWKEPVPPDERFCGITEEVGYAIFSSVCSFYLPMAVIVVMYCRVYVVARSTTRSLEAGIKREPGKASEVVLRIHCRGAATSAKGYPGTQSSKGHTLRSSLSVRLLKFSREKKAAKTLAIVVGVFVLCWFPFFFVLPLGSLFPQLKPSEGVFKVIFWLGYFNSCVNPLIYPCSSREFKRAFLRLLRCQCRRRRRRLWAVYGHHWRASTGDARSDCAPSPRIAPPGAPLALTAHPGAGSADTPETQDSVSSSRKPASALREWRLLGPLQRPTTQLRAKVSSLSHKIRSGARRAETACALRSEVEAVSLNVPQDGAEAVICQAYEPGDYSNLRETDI
T3 sequence (P43140 whole entry): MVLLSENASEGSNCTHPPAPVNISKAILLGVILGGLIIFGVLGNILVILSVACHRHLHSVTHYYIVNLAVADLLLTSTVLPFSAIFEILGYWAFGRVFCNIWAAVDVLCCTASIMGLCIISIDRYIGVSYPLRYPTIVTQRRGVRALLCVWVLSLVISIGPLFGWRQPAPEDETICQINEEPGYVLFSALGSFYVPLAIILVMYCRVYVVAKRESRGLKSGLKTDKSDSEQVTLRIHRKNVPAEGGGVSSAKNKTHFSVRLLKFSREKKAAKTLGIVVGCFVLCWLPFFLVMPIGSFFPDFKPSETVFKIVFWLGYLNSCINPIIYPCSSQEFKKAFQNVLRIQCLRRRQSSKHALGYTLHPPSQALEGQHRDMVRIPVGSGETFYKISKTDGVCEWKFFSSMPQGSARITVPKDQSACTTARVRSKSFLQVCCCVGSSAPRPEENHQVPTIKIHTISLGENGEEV

[6] = Selectivity ratio expressed as the ratio of -log methoxamine pA2 to -log clonidine pA2
Mus musculus = assay: Compound was evaluated for its antagonistic effect on the Tetrabenazine-induced ptosis following intravenous administration; type: functional

Structure (SMILES)	pA2 [1]	Selectivity ratio [2]	Ki [3]	Ki [4]	pA2 [5]	Selectivity ratio [6]	ED50 (Mus musculus)
CN1CCC(c2ccccn2)CC1	< 5.8	6	420 nM	2500 nM			
CN1CC=C(c2ccccn2)CC1	6.2	44	57 nM	2500 nM	5.4	6	0.5 mg/kg
CN1CC=C(c2ccncc2F)CC1	< 5.8	11	720 nM	7700 nM			
CN1CCN(c2ncccc2F)CC1		98	5 nM			16	
CN1CC=C(c2ncccc2Cl)CC1	< 5.9	31	72 nM	2260 nM			
CNCCCN1c2ccccc2CCc2ccccc21 [DESIPRAMINE]							0.07 mg/kg
Cc1cccnc1C1=CCN(C)CC1	< 5.8	15	170 nM	2500 nM			
c1ccc(N2CCNCC2)nc1		65	37 nM			5	
C1=C(c2ccccn2)CCNC1	< 5.7	28	144 nM	4000 nM			
CN1CC=C(c2ncccc2F)CC1	6.8	150	22 nM	3300 nM	5.3	32	0.35 mg/kg
CN1CC=C(c2cccnc2)CC1	< 5.8	6.4	750 nM	4800 nM			
